In brackets after ≈: the same amount, converted by molar mass.
Experiments:
[1] = system: ISA virus; assay: Inhibition assay of the replicative cycle of ISAV in SHK-1 cells (real-time RT-PCR of supernatant); assay type: cell-based
[2] = system: ISA virus; assay: Example 1: necropsies analysis of infected treated fish; assay type: in vivo, Salmo salar; conditions: infected fish of tanks T1 and T2; FIGS. 14 and 15
Description: The necropsy of the fish in the assay of controlled environment was made through external and internal clinical analysis, with registration of morphometric parameters, description and registration of pathological features (necropsy itself), sampling of internal organs (heart, kidney, spleen and gills) in ethanol and RNA later, with counter samples (i.e. duplication of the samples of the organs same), along with the sample of muscle locket with skin to be used afterwards in analysis of deficiency (presence of the Antiviral in the muscle).
The fish were subjected to necropsy process mostly within 24 hours post sampling.
At the end of the assay all fish were euthanized and necropsied.

[3] = system: ISA virus; assay: Example 1: hematocrit of ISAV-infected treated fish; assay type: in vivo, Salmo salar; conditions: live fish
[4] = Degradation when autoclaved at 121° C., 15 psi, 25% relative humidity; assay type: physicochemical
[5] = system: SHK-1 cells; conditions: Atlantic salmon, 3 days
[6] = 48 hours
[7] = system: VHSV virus (Viral Hemorrhagic Septicemia Virus); conditions: EPC cells, cited from earlier work
[8] = system: IPNV; conditions: solution in the tank, exposure once during two hours; cited from earlier work
[9] = system: RNA viruses; conditions: in general, in vitro; read-out: EC50 values (effective concentration 50%); cited from earlier work
[10] = system: cell cultures; conditions: cited from earlier work
[11] = system: SHK-1 cells; assay: Cytotoxicity: cell viability of SHK-1 cells (propidium iodide cytometry); conditions: relative to effective concentration
[12] = Example 1: toxicity in healthy uninfected fish given the highest dose (tank C2)
[13] = system: ISA virus; assay: Example 1: determination of viral load in heart samples (real-time RT-PCR, TCID50); conditions: for viral load in infected fish (intraperitoneal): FIG. 9

Q: For `NC(=O)c1ncn([C@@H]2O[C@H](CO)[C@@H](O)[C@H]2O)n1` [ribavirin, 1-beta-D-ribofuranosyl-1H-1,2,4-triazole-3-carboxamide], which EC50 ([1]; 72 h, read-out: concentration which inhibits 50% of ISA virus replication (EC50)) is on record?
A: ~0.4 µg/mL (≈ 1.64 µM)

Q: And the necropsy findings [2]?
A: mild inflammatory signs

Q: What about the hematocrit ([3]; tank T1, infected, dose of 800 μg/mL) of the same molecule?
A: ~45%

Q: What about the hematocrit ([3]; tank T2, infected, dose of 400 μg/mL) of the same molecule?
A: ~45%

Q: What about the “% Antiviral” value ([4]; 5 minutes in autoclave) of the same molecule?
A: 97.2%

Q: And the “% Antiviral” value ([4]; 10 minutes in autoclave)?
A: 91.9%

Q: And the “% Antiviral” value ([4]; 20 minutes drying + 30 minutes in autoclave)?
A: 99.5%

Q: What about the “% Antiviral” value ([4]; 30 minutes in autoclave) of the same molecule?
A: 90.3%

Q: What about the “concentration that produces 50% of cell toxicity (CC50)” value [5] of the same molecule?
A: > 400000 µg/mL

Q: And the “stability of the aqueous solution” value [6]?
A: ≤ 48 h

Q: And the RNA inhibition ([7]; 25 μg/ml added at 0 hours post infection, at 10 hours post infection)?
A: 99.8%

Q: What about the “inhibition of the virus” value ([7]; concentrations of 5, 10 and 25 μg/ml) of the same molecule?
A: strong inhibition

Q: What about the “decreased rate of dead fish” value [8] of the same molecule?
A: about 5%

Q: What about the EC50 [9] of the same molecule?
A: ≥ 1000 nM

Q: What about the CC50 [10] of the same molecule?
A: 100 µg/mL (≈ 409 µM)

Q: What about the “no cytotoxicity in concentrations times higher than the actual” value [11] of the same molecule?
A: up to 10^7 times

Q: And the signs of anemia ([12]; healthy fish receiving a high dose (C2))?
A: no signs of developing anemia

Q: And the hematocrit ([12]; tank C2, healthy, dose of 1600 μg/mL)?
A: 54%

Q: And the “viral load in dead fish” value ([13]; highest dose (T1) compared with T2 and C3, FIG. 8)?
A: significantly lower

Q: And the “viral load in infected fish (intraperitoneal)” value ([13]; highest dose (T1))?
A: lower

Q: What about the “viral load in infected fish (intraperitoneal)” value ([13]; lowest dose (T2) versus untreated (C3)) of the same molecule?
A: practically the same

Q: And the “average viral load (total)” value ([13]; tanks T1 and T2 versus C3, FIG. 6)?
A: smaller than the uninfected fish

Q: Which “inhibition of the replication of ISA virus” value ([1]; concentrations as high as 300 μg/mL, SHK-1 cells, 3 days post-infection, FIG. 1) does the source give for `CCOC(=O)C1=C[C@@H](OC(CC)CC)[C@H](NC(C)=O)[C@@H](N)C1` [oseltamivir] here?
A: no more than 60%

Q: For `O=C(O)C1=C[C@@H](O)[C@@H](O)[C@H](O)C1` [shikimic acid], which viral replication inhibition ([1]; up to concentrations of 300 μg/ml, FIG. 2) is on record?
A: no viral replication inhibition

Reference: patent US20130190263A1 (LABORATORIO DE DIAGNOSTICO GAM, S.A., priority 2010, published 2013)
